{
  "source": "the supplement of paper PMC10307832",
  "test_in_all_cases": "relative viability (nuclei count vs DMSO), 5 days (fraction); higher = more cells survive",
  "key": {"EBC-1": {"system": "EBC-1", "procedure,_shortened": "(§1)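 For relative viability, nuclei counts in treated wells were divided by those in vehicle wells. Lung cancer cell lines had been pin-tool dosed in 1536-well plates the day after seeding and cultured for 5 days, then fixed and stained in one step (final 0.05% Triton X-100, 1% formaldehyde, 1 ug/ml Hoechst) and imaged at 4×. Doses were one drug alone or a fixed anchor-drug dose plus five library-drug doses (not always all listed) in √10 steps, and values are duplicate-plate medians.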"}, "NCI-H1299": {"system": "NCI-H1299", "procedure,_shortened": "as §1"}, "NCI-H2023": {"system": "NCI-H2023", "procedure,_shortened": "as §1"}, "NCI-H520": {"system": "NCI-H520", "procedure,_shortened": "as §1"}, "NCI-H1703": {"system": "NCI-H1703", "procedure,_shortened": "as §1"}, "NCI-H727": {"system": "NCI-H727", "procedure,_shortened": "as §1"}, "Calu-6": {"system": "Calu-6", "procedure,_shortened": "as §1"}, "IA-LM": {"system": "IA-LM", "procedure,_shortened": "as §1"}, "A549": {"system": "A549", "procedure,_shortened": "as §1"}, "NCI-H2170": {"system": "NCI-H2170", "procedure,_shortened": "as §1"}},
  "data": [
    {"smiles": "Cc1csc(=NC2CCCCC2)n1/N=C/c1ccc(O)c(O)c1O", "note": "[MIM1] + CC(C)C[C@H](NC(=O)[C@H](Cc1ccccc1)NC(=O)c1cnccn1)B(O)O [Bortezomib] (partner 0.002 µM)", "values": [
      {"measurement": "relative viability", "setting": "EBC-1; first compound 0.2 µM", "result": 0.496},
      {"measurement": "relative viability", "setting": "EBC-1; first compound 0.6325 µM", "result": 0.569},
      {"measurement": "relative viability", "setting": "EBC-1; first compound 2 µM", "result": 0.647},
      {"measurement": "relative viability", "setting": "EBC-1; first compound 6.325 µM", "result": 0.324},
      {"measurement": "relative viability", "setting": "EBC-1; first compound 20 µM", "result": 0.242},
      {"measurement": "relative viability", "setting": "NCI-H1299; first compound 0.2 µM", "result": 1.01},
      {"measurement": "relative viability", "setting": "NCI-H1299; first compound 0.6325 µM", "result": 1.03},
      {"measurement": "relative viability", "setting": "NCI-H1299; first compound 2 µM", "result": 0.999},
      {"measurement": "relative viability", "setting": "NCI-H1299; first compound 6.325 µM", "result": 0.965},
      {"measurement": "relative viability", "setting": "NCI-H1299; first compound 20 µM", "result": 0.994},
      {"measurement": "relative viability", "setting": "NCI-H2023; first compound 0.2 µM", "result": 1.11},
      {"measurement": "relative viability", "setting": "NCI-H2023; first compound 0.6325 µM", "result": 0.916},
      {"measurement": "relative viability", "setting": "NCI-H2023; first compound 2 µM", "result": 0.765},
      {"measurement": "relative viability", "setting": "NCI-H2023; first compound 6.325 µM", "result": 0.35},
      {"measurement": "relative viability", "setting": "NCI-H2023; first compound 20 µM", "result": 0.0682},
      {"measurement": "relative viability", "setting": "NCI-H520; first compound 0.2 µM", "result": 0.721},
      {"measurement": "relative viability", "setting": "NCI-H520; first compound 0.6325 µM", "result": 0.353},
      {"measurement": "relative viability", "setting": "NCI-H520; first compound 2 µM", "result": 0.684},
      {"measurement": "relative viability", "setting": "NCI-H520; first compound 6.325 µM", "result": 0.401},
      {"measurement": "relative viability", "setting": "NCI-H520; first compound 20 µM", "result": 0.184},
      {"measurement": "relative viability", "setting": "NCI-H1703; first compound 0.2 µM", "result": 0.386},
      {"measurement": "relative viability", "setting": "NCI-H1703; first compound 0.6325 µM", "result": 0.358},
      {"measurement": "relative viability", "setting": "NCI-H1703; first compound 2 µM", "result": 0.318},
      {"measurement": "relative viability", "setting": "NCI-H1703; first compound 6.325 µM", "result": 0.155},
      {"measurement": "relative viability", "setting": "NCI-H1703; first compound 20 µM", "result": 0.133},
      {"measurement": "relative viability", "setting": "NCI-H727; first compound 0.2 µM", "result": 0.671},
      {"measurement": "relative viability", "setting": "NCI-H727; first compound 0.6325 µM", "result": 0.785},
      {"measurement": "relative viability", "setting": "NCI-H727; first compound 2 µM", "result": 0.705},
      {"measurement": "relative viability", "setting": "NCI-H727; first compound 6.325 µM", "result": 0.602},
      {"measurement": "relative viability", "setting": "NCI-H727; first compound 20 µM", "result": 0.286},
      {"measurement": "relative viability", "setting": "Calu-6; first compound 0.2 µM", "result": 1.05},
      {"measurement": "relative viability", "setting": "Calu-6; first compound 0.6325 µM", "result": 1.1},
      {"measurement": "relative viability", "setting": "Calu-6; first compound 2 µM", "result": 0.923},
      {"measurement": "relative viability", "setting": "Calu-6; first compound 6.325 µM", "result": 0.289},
      {"measurement": "relative viability", "setting": "Calu-6; first compound 20 µM", "result": 0.203},
      {"measurement": "relative viability", "setting": "IA-LM; first compound 0.2 µM", "result": 0.754},
      {"measurement": "relative viability", "setting": "IA-LM; first compound 0.6325 µM", "result": 0.792},
      {"measurement": "relative viability", "setting": "IA-LM; first compound 2 µM", "result": 0.783},
      {"measurement": "relative viability", "setting": "IA-LM; first compound 6.325 µM", "result": 0.275},
      {"measurement": "relative viability", "setting": "IA-LM; first compound 20 µM", "result": 0.0874}
    ]},
    {"smiles": "Cc1cn(-c2cc(NC(=O)c3ccc(C)c(Nc4nccc(-c5cccnc5)n4)c3)cc(C(F)(F)F)c2)cn1", "note": "[Nilotinib] + Cc1nc(NC(=O)N2CCC[C@H]2C(N)=O)sc1-c1ccnc(C(C)(C)C(F)(F)F)c1 [Alpelisib] (partner 2 µM)", "values": [
      {"measurement": "relative viability", "setting": "EBC-1; first compound 0.001 µM", "result": 0.787},
      {"measurement": "relative viability", "setting": "EBC-1; first compound 0.003162 µM", "result": 0.796},
      {"measurement": "relative viability", "setting": "EBC-1; first compound 0.01 µM", "result": 0.811},
      {"measurement": "relative viability", "setting": "EBC-1; first compound 0.03162 µM", "result": 0.566},
      {"measurement": "relative viability", "setting": "EBC-1; first compound 0.1 µM", "result": 0.689},
      {"measurement": "relative viability", "setting": "NCI-H2023; first compound 0.001 µM", "result": 0.513},
      {"measurement": "relative viability", "setting": "NCI-H2023; first compound 0.003162 µM", "result": 0.655},
      {"measurement": "relative viability", "setting": "NCI-H2023; first compound 0.01 µM", "result": 0.654},
      {"measurement": "relative viability", "setting": "NCI-H2023; first compound 0.03162 µM", "result": 0.558},
      {"measurement": "relative viability", "setting": "NCI-H2023; first compound 0.1 µM", "result": 0.478},
      {"measurement": "relative viability", "setting": "A549; first compound 0.001 µM", "result": 0.721},
      {"measurement": "relative viability", "setting": "A549; first compound 0.003162 µM", "result": 0.817},
      {"measurement": "relative viability", "setting": "A549; first compound 0.01 µM", "result": 1.02},
      {"measurement": "relative viability", "setting": "A549; first compound 0.03162 µM", "result": 0.543},
      {"measurement": "relative viability", "setting": "A549; first compound 0.1 µM", "result": 0.649},
      {"measurement": "relative viability", "setting": "NCI-H520; first compound 0.001 µM", "result": 0.793},
      {"measurement": "relative viability", "setting": "NCI-H520; first compound 0.01 µM", "result": 0.986},
      {"measurement": "relative viability", "setting": "NCI-H520; first compound 0.03162 µM", "result": 0.719},
      {"measurement": "relative viability", "setting": "NCI-H520; first compound 0.1 µM", "result": 1.03},
      {"measurement": "relative viability", "setting": "NCI-H2170; first compound 0.001 µM", "result": 0.865},
      {"measurement": "relative viability", "setting": "NCI-H2170; first compound 0.003162 µM", "result": 0.916},
      {"measurement": "relative viability", "setting": "NCI-H2170; first compound 0.01 µM", "result": 1.15},
      {"measurement": "relative viability", "setting": "NCI-H2170; first compound 0.03162 µM", "result": 0.767},
      {"measurement": "relative viability", "setting": "NCI-H2170; first compound 0.1 µM", "result": 1.07},
      {"measurement": "relative viability", "setting": "NCI-H1703; first compound 0.001 µM", "result": 0.338},
      {"measurement": "relative viability", "setting": "NCI-H1703; first compound 0.003162 µM", "result": 0.249},
      {"measurement": "relative viability", "setting": "NCI-H1703; first compound 0.01 µM", "result": 0.171},
      {"measurement": "relative viability", "setting": "NCI-H1703; first compound 0.03162 µM", "result": 0.166},
      {"measurement": "relative viability", "setting": "NCI-H1703; first compound 0.1 µM", "result": 0.175},
      {"measurement": "relative viability", "setting": "NCI-H727; first compound 0.001 µM", "result": 0.573},
      {"measurement": "relative viability", "setting": "NCI-H727; first compound 0.01 µM", "result": 0.719},
      {"measurement": "relative viability", "setting": "NCI-H727; first compound 0.03162 µM", "result": 0.456},
      {"measurement": "relative viability", "setting": "NCI-H727; first compound 0.1 µM", "result": 0.395},
      {"measurement": "relative viability", "setting": "Calu-6; first compound 0.001 µM", "result": 1.11},
      {"measurement": "relative viability", "setting": "Calu-6; first compound 0.01 µM", "result": 1.03},
      {"measurement": "relative viability", "setting": "Calu-6; first compound 0.03162 µM", "result": 0.989},
      {"measurement": "relative viability", "setting": "Calu-6; first compound 0.1 µM", "result": 0.958},
      {"measurement": "relative viability", "setting": "IA-LM; first compound 0.001 µM", "result": 0.653},
      {"measurement": "relative viability", "setting": "IA-LM; first compound 0.003162 µM", "result": 0.679},
      {"measurement": "relative viability", "setting": "IA-LM; first compound 0.01 µM", "result": 0.781},
      {"measurement": "relative viability", "setting": "IA-LM; first compound 0.03162 µM", "result": 0.606},
      {"measurement": "relative viability", "setting": "IA-LM; first compound 0.1 µM", "result": 0.963}
    ]}
  ]
}
